Patent publication US20220397566A1, “GAMMA-SECRETASE STABILIZING COMPOUND SCREENING ASSAY” (VIB VZW, priority 2019, published 2022)
Read-outs that look alike come from different tables or passages of the source.

Key:
Type in all cases: cell-based, mouse
[1] = tested on: NCT; test: Cell surface biotinylation internalization assay, NCT; settings: DAPT 1 μM
Procedure: (§1) All reagents, except otherwise stated, were kept on ice. Cells (450.000 cells for 1 h kinetic and 300.000 cells for 16 h) were plated on 6-cm dishes. 48 h after plating, cells were placed on ice, washed in PBS (pH 8) and next incubated in PBS (pH 8) supplemented with 0.25 mg/ml sulfo-NHS-SS-Biotin (Pierce) (10 min at 4° C.). Excess of biotin was washed out with PBS and cells were incubated in quench buffer (0.5% BSA, 100 mM Glycine in PBS) for 15 min at 4° C. Cells were then washed with PBS and incubated at 37° C. in complete pre-warmed medium (with or without DAPT 1 μM) for the appropriate time or kept at 4° C. as a control. Endocytosis was quickly stopped by placing the dishes back on ice and washing the cells with ice-cold PBS. Remaining biotin at the cell surface was cleaved off by incubating the cells twice in PBS containing 100 mM 2-sodium-2-mercaptoethanesulfonate (Sigma) as a reducing agent (15 min at 4° C.). […] Total protein was measured and biotinylated proteins were pulled down from equal amounts of extracts using streptavidin Sepharose beads (Pierce) (4° C., overnight on a rotation wheel). […] To evaluate the internalized pool for each protein to total cell surface, the (R37-R0)/NR*100 ratio for each time point were quantified. For the 16 h time point, the R37/NR*100 were quantified for each condition. […]

[2] = target: T1, PSEN1/g-secretase complex (Homo sapiens, UniProt P49768); test: Relocation of GFP-PSEN1/g-secretase to LAMP1-positive late endosomes (confocal immunofluorescence)
T1 construct: expressed in transfected cells
Procedure: We now questioned whether g-secretase inhibitors would affect subcellular distribution of g-secretase complexes as well. We made use of mouse embryonic fibroblasts (MEFs) in which both PSEN1 an PSEN2 are knocked-out (dKO), rescued with either EGFP-PSEN1 or EGFP-PSEN2 (FIG. 1A). […] The dKO MEFs were then incubated overnight with N—[N-(3,5-difluorophenacetyl)-L-alanyl]-S-phenylglycine t-butyl ester (DAPT). DAPT is a non-transition state analogue (TSA) g-secretase inhibitor that is widely used (Dovey et al 2001 J Neurochem 76).
All culture media and sera are from ThermoFisher Scientific. Mouse embryonic fibroblasts (MEFs), PSEN1 knock-out (1 ko), PSEN1 and PSEN2 double knock-out (dKO, Herreman et al 2000 Nat Cell Biol 2), rescued 1 ko and dKO cell lines cells were routinely grown in Dulbecco's modified Eagle's medium (DMEM/F12) supplemented with 10% fetal calf serum (FCS). All cell lines were maintained in a humidified chamber with 5% CO2 at 37° C. Primary hippocampal neuron cultures are derived from E18 rat embryos (Esselens et al 2004 J Cell Biol 166). Stable rescued 1 ko and dKO cell lines were generated using replication-defective recombinant retroviral system (pMCSV vector, Clontech) expressing the gene of interest.
Cells were plated on glass coverslips, transfected 24 h later and processed for indirect immunolabeling the next day (Sannerud et al 2011 Proc Natl Acad Sci USA 108). Images were captured on a confocal microscope (Leica TCS SP5 II, Leica Microsystems) connected to an upright microscope, using an oil-immersion plan Apo 60× A/1.40 NA objective lens. Image acquisition was performed with LAS (Leica Microsystems). Images were further processed with ImageJ and PhotoshopCS6 (Adobe, Calif.). ImageJ software with the plugin JACoP (Bolte and Cordelieres 2006 J Microsc 224) was used for signal overlap quantification (Mander's coefficient). Images were acquired with identical settings and regions of interest (ROI) covering whole cells were used for quantification.

[3] = tested on: transferrin receptor; test: Cell surface biotinylation internalization assay, transferrin receptor; settings: 16 h time point, DAPT 1 μM
Procedure: as §1

[4] = target: PSEN1/g-secretase (Homo sapiens, UniProt P49768); test: Ab production in MEFs transfected with C99-3×FLAG (Western blot 82E1); parameters: expressed in transfected cells; settings: 16 hours
Procedure: FIG. 5. Inhibitor dose-effect on Ab production. PSEN1 KO MEFs stably rescued with GFP-PSEN1 and transfected with C99-3×FLAG (6 h) were treated with different concentrations of (A, B) DAPT, or (C) L-685-458 as indicated. After 16 h, condition media and cell lysates were analyzed by Western blot using 82E1 monoclonal antibody to detect AP. Representative blot is shown in […] for DAPT treatment and quantification is shown in (B): mean+SEM, n=3 independent experiments. (C) PSEN1 KO MEFs. Quantification for L-685-458 is shown in (C), n=1.
Based on these new data, it is crucial to compare the sensitivity to g-secretase inhibitors of the g-secretase complex located in the late endosomes (producing intracellular Ab) and the broadly localised g-secretase complex (producing extracellular Ab). We therefore compared the dose-dependencies of translocated PSEN1/g-secretase with catalytic inhibition by DAPT. MEFs were transfected with APP-C99-3×FLAG for 6 hours and treated with different doses of DAPT. After 16 hours, conditioned media and cell lysates were collected and analysed by Western blotting for total secreted and intracellular Ab, respectively. This resulted for DAPT in a lower IC50 for secreted Ab inhibition (FIG. 5A-B).
Protein concentrations were determined by the Bio-Rad DC protein assay (Bio-Rad). Samples were separated by SDS-PAGE (4-12% Bis-Tris NuPAGE gels in MES running buffer (ThermoFisher Scientific) and transferred onto nitrocellulose membranes (ThermoFisher Scientific). After blocking in 5% non-fat milk, membranes were incubated with primary antibody (4° C., overnight) followed by washing and incubation with horseradish peroxidase (HRP)-conjugated secondary antibodies (1 h, room temperature). After final washing, immunodetection was done using enhanced chemiluminescence (Western Lightning-Plus ECL, PerkinElmer), and immunoreactive protein bands were digitally captured and quantified on a Fuji MiniLAS 3000 imager (Fuji, Dusseldorf, Germany) using Aida Image Analyzer software (Raytest, Germany). Data are represented as mean±SEM of at least three independent experiments.

For `C[C@H](NC(=O)Cc1cc(F)cc(F)c1)C(=O)N[C@H](C(=O)OC(C)(C)C)c1ccccc1` [DAPT, N—[N-(3,5-difluorophenacetyl)-L-alanyl]-S-phenylglycine t-butyl ester], the “internalized NCT (internalization kinetics)” value ([1]; 5, 10, 30 and 60 min) was “did not reveal significant differences in internalized NCT”, the “amount of biotinylated NCT pulled down” value ([1]; 16 h time point) was “doubling of the amount of biotinylated NCT” and the “EGFP-PSEN1 in LAMP1-positive organelles, Mander's coefficient” value ([2]; 1 μM, 16 hrs, PSEN1/PSEN2 dKO MEFs rescued with EGFP-PSEN1) was “threefold increase”. For the same compound, the “increase in ratio of EGFP-PSEN1 fluorescence within LAMP1-positive compartments over total EGFP-PSEN1” value ([2]; 1 μM, 16 hrs, dKO MEFs rescued with EGFP-PSEN1) was 50%, the “translocation of the PSEN1/g-secretase complex to the late endosomes (Rel MFI)” value ([2]; 1 μM, FIG. 8) was “induce a translocation of the PSEN1/g-secretase complex to the late endosomes” and the “reversibility of late endosomal relocation after wash-out” value ([2]; DAPT-containing medium replaced with fresh medium, 16 hrs) was “fully reversible”. For the same compound, the “dose dependence of PSEN1/g-secretase relocation” value ([2]; between 1 and 1000 nM) was “clear dose response”, the “fold increase by which PSEN1/g-secretase relocates” value ([2]; dose response, normalised to DMSO) was “almost two-fold” and the “biotinylated transferrin receptor pulled down” value [3] was “no differences were found”. For the same compound, the IC50 ([4]; cell lysates, read-out: IC50 intracellular Ab) was 0.021 µM and the IC50 ([4]; conditioned media, read-out: IC50 for secreted Ab inhibition) was 0.016 µM.
